In the CheMixHub viscosity set:

Test: xn = mol fraction of the nth substance listed
Settings: 101 kPa

CCOc1ccccc1 + Nc1ccccc1
viscosity [mPa·s]
Settings	x1 = 0.09206	x1 = 0.1748	x1 = 0.2667	x1 = 0.3716	x1 = 0.4789	x1 = 0.5934	x1 = 0.7132	x1 = 0.8542
293.35 K	3.64	3.17	2.75	2.39	2.1	1.84	1.63	1.428
302.75 K	2.7	2.38	2.115	1.87	1.67	1.495	1.335	1.169
313.15 K	2.08	1.865	1.675	1.5	1.355	1.225	1.106	0.982

CC(=O)N(C(C)C)C(C)C + O
298.16 K
Settings	viscosity [mPa·s]
x2 = 0.0812	2.4
x2 = 0.2041	2.83
x2 = 0.3933	3.61
x2 = 0.5827	4.68
x2 = 0.6893	5.21
x2 = 0.7296	5.3
x2 = 0.7747	5.26
x2 = 0.8218	4.96
x2 = 0.856	4.59

CC(C)(C)N1CCCC1=O + O
298.16 K
Settings	viscosity [mPa·s]
x1 = 0.1105	3.47
x1 = 0.261	4.04
x1 = 0.4035	4.76
x1 = 0.5487	5.49
x1 = 0.6233	5.79
x1 = 0.6749	5.86
x1 = 0.7189	5.81
x1 = 0.7798	5.44
x1 = 0.8652	4.22

CC(C)[C@H](N)C(=O)[O-].[Na+] + O
viscosity [mPa·s]
Settings	x1 = 0.004484	x1 = 0.008927	x1 = 0.01333	x1 = 0.0177	x1 = 0.02202	x1 = 0.02631
293.15 K	1.165	1.356	1.571	1.816	2.087	2.385
303.15 K	0.919	1.057	1.214	1.382	1.573	1.786
313.15 K	0.747	0.85	0.969	1.094	1.233	1.387
323.15 K	0.621	0.702	0.793	0.889	0.994	1.11

CCCC[P+](CC)(CCCC)CCCC.[Br-] + O
Settings	viscosity [mPa·s]
303.15 K, x1 = 0.008931	1.225

CCOC(C)=O + O
298.15 K
Settings	viscosity [mPa·s]
x1 = 0.00139	0.9095
x1 = 0.001837	0.9129
x1 = 0.003766	0.9354
x1 = 0.006372	0.9652
x1 = 0.006895	0.9678
x1 = 0.01022	1.004
x1 = 0.01327	1.036
x1 = 0.8902	0.4495
x1 = 0.9238	0.4395
x1 = 0.9579	0.4312
